Measured values: patent US10363239B2, “Method for inhibiting growth of cancer cells” (Pain Therapeutics, Inc., priority 2013, dated 2019)

Assays:
[1] = tested on: human mammalian epithelial cells (HMEC); experiment: [3H]glucose uptake; type: cell-based; conditions: 0.1-5 nM; 4 days
Procedure: (§1) FIG. 1A through FIG. 1M illustrate the effects of various FLNA-binding compounds on glucose uptake in glioblastoma, melanoma, breast and pancreatic cancer cell lines, along with appropriate non-cancerous primary cell controls. Cells were grown in the absence or presence of 0.1-5 nM indicated compounds for 4 days. Following brief washes with PBS, cells were serum-deprived for 4 hours and then incubated in oxygenated Kreb's Ringer containing 0.1 μCi [^3H]glucose for 2 hours under constant oxygenation. The reaction was terminated by removal of the incubation medium, and cells were washed and scraped off to determine the amounts of [^3H]glucose in cells by scintillation spectrometry. […] N=5-6. […] . […] . To determine the effect of Compound C0105 on glucose utilization, the cancer and primary normal cells were plated extremely thinly (10%). Once cells attached, Compound C0105 was added at 0.1, 0.5, 1 or 5 nM in the medium twice daily (6 hours apart) for 4 days. The cells were serum-deprived (glucose deprived) for 2 hours. Cells were then rinsed with 1 ml PBS and glucose uptake was assessed by contacting the cells with [^3H]glucose (0.01 uCi/l ml) in Kreb's Ringer for 2 hours. Cells were then rinsed with 1 ml PBS 3 times, scraped off and their glucose content counted by liquid scintillation spectrophotometry.

[2] = tested on: primary human pancreatic epithelial cells; experiment: [3H]glucose uptake; type: cell-based; conditions: 0.1-5 nM; 4 days
Procedure: as §1

[3] = tested on: MiaPaCa2 cells; experiment: Cell proliferation by cell-cycling markers Ki67 and PCNA (Western blots); type: cell-based, human; conditions: 0.1-5 nM; 4 days
Procedure: The effect of contact with Compound C0105 on cell proliferation was determined by the levels of cell-cycling markers Ki67 and PCNA using Western blots. Cells treated with vehicle and 0.1-5 nM C0105 for 4 days were collected, washed and solubilized (lysed). The resultant cell lysates were size-fractionated on SDS-PAGE and Western blotting to determine the levels of Ki67, PCNA and actin (loading control). The protein bands were quantified using densitometric scanning. […] N=4. *p<0.01 compared to vehicle (open bars).
To study the effect of Compound C0105 on PI3K activity, the cancer and primary normal cells were cultured to approximately 60-70% confluency, serum deprived for 4 hours, briefly washed with PBS and treated with vehicle or 0.1, 0.5, 1 or 5 nM Compound C0105 for 24 hours with in 0.1% FBS-containing culture medium. […] The cell pellets were sonicated in ice-cold immunoprecipitation buffer and protein concentrations measured by the Bradford method. […]
Immunoreactivity was visualized by reaction in ECL Plus chemiluminescent reagent for exactly 5 minutes, followed by immediate exposure of the blot to X-ray film (Z & Z Medical). Bands at the relevant molecular masses of Ki67 and PCNA were quantified by densitometric scan. Membranes were stripped, washed 5× in 0.1% PBST (2 minutes each) and the actin content analyzed by immunoblotting using monoclonal anti-actin to illustrate even loading.

[4] = tested on: glioblastoma cells; experiment: [3H]thymidine incorporation; type: cell-based, human; conditions: 0.1-5 nM; 96 hours
Procedure: (§2) The effect of Compound C0105 on cell proliferation was determined by the level of [^3H]thymidine incorporation in glioblastoma, melanoma and small-cell lung carcinoma cells. Cells contacted with vehicle or 0.1-5 nM Compound C0105 were incubated with 5 μCi/ml of [^3H]thymidine for 96-hours. Cells were washed and the cell content of [^3H]thymidine was quantified using scintillation spectrometry. […] N=4. **p<0.05, *p<0.01 compared to vehicle (open bars).

[5] = tested on: melanoma cells; experiment: [3H]thymidine incorporation; type: cell-based, human; conditions: 0.1-5 nM; 96 hours
Procedure: as §2

[6] = tested on: small-cell lung carcinoma cells; experiment: [3H]thymidine incorporation; type: cell-based, human; conditions: 0.1-5 nM; 96 hours
Procedure: as §2

[7] = tested on: MiaPaCa2 cells; experiment: Blocking of compound effects with FLNA decoy pentapeptide VAKGL or control peptide VAAGL; type: cell-based, human; conditions: 4 days
Procedure: FIGS. 32A-32D illustrate Western blots of pS^2152FLNA, Ras-GAP, PP2A-Aα/β, PTEN and FLNA in FIG. 32A and Ki67, PCNA and actin in FIG. 32C after four days of incubation (contact) of MiaPaCa2 cells in the presence of medium alone, or medium containing 1 nM Compound C0105 with and without the presence of 10 μM peptide VAAGL (SEQ ID NO: 2) or peptide VAKGL (SEQ ID NO: 1). Densitometric quantification of the Western blot results are shown in the graphs of FIG. 32B for the amounts of pS^2152FLNA, Ras-GAP, PP2A-Aα/β and PTEN in anti-FLNA immunoprecipitates and the amounts of Ki76 and PCNA (normalized by actin) in FIG. 32D. N=4, *p<0.01.
To confirm that Compound C0105 effects are mediated by binding to FLNA pentapeptide VAKGL (SEQ ID NO: 1), cancer cells were incubated with vehicle or 1 nM Compound C0105 together with 10 μM of decoy pentapeptide (VAKGL) or control peptide, VAAGL (K-A decoy peptide; SEQ ID NO: 2) for 4 days as described previously.
Cells were harvested by centrifugation and solubilized, and lysates were immunoprecipitated with anti-FLNA. Levels of pS^2152FLNA, PTEN, PP2A-Aα, PP2A-Aβ and Ras-GAP in the anti-FLNA immunoprecipitates were determined by Western blotting.
A separate series of studies was undertaken to determine whether Compound C0105's reduction in proliferation markers is also mediated by Compound C0105 binding to the pentapeptide region of FLNA. As above, cancer cells were incubated for 4 days with vehicle or 1 nM Compound C0105 together with 10 μM of decoy pentapeptide (VAKGL; SEQ ID NO: 1) or control peptide, VAAGL (SEQ ID NO: 2).
Cells were harvested by centrifugation and the resultant cell pellets were washed and sonicated in ice-cold immunoprecipitation buffer. Protein concentrations were measured by the Bradford method. […] Fifty μl of solubilized cell lysates were separated using SDS-PAGE, the protein bands electrophoretically transferred to nitrocellulose membranes and the level of cell proliferation was determined by Western blotting using the levels of Ki67 and PCNA as described previously.

## CN1CCC2(CC1)NCC(=O)N2Cc1ccccc1 [Compound C0105]
[1]
  Basal glucose uptake: no change
[2]
  Basal glucose uptake: no effect
[3]
  Cell proliferation (Ki67 and PCNA levels): reduces cell proliferation
[4]
  Cell proliferation by [3H]thymidine incorporation: reduces glioblastoma, melanoma and small-cell lung carcinoma cell proliferation
[5]
  Cell proliferation by [3H]thymidine incorporation: reduces glioblastoma, melanoma and small-cell lung carcinoma cell proliferation
[6]
  Cell proliferation by [3H]thymidine incorporation: reduces glioblastoma, melanoma and small-cell lung carcinoma cell proliferation
[7]; 1 nM compound + 10 μM VAAGL (SEQ ID NO: 2)
  Effect on pS2152FLNA and FLNA associations when co-incubated with control peptide VAAGL: did not disrupt Compound C0105 effects
[7]; 1 nM compound + 10 μM VAKGL (SEQ ID NO: 1)
  Effect on pS2152FLNA and FLNA associations when co-incubated with VAKGL decoy pentapeptide: lost its effect on pS^2152FLNA hyperphosphorylation and on FLNA associations with ras-GAP, PTEN and PP2A
[7]; 1 nM compound + 10 μM VAKGL
  Reduction in cell proliferation (Ki67, PCNA) when co-incubated with VAKGL decoy pentapeptide: disrupted Compound C0105's reduction in cell proliferation
